In ChEMBL document CHEMBL4619725, “Ultrasounds-mediated 10-seconds synthesis of chalcones as potential farnesyltransferase inhibitors” (Bioorg Med Chem Lett, 2020):
Calls of active or inactive are those of the source. No cut-off for these calls is given here.

Experiments:
Homo sapiens = organism: Homo sapiens; test: Inhibition of C-terminal His6-tagged human recombinat FTase expressed in Escherichia coli BL21 RIL (DE3) cells using Dansyl-GCVLS peptide and farnesyl pyrophosphate as substrate at 100 uM measured for 15 mins by fluorimetric analysis relative to control
[1] = Inhibition of C-terminal His6-tagged human recombinat FTase expressed in Escherichia coli BL21 RIL (DE3) cells using Dansyl-GCVLS peptide and farnesyl pyrophosphate as substrate measured for 15 mins by fluorimetric analysis
KM12 = test: Cytostatic activity against human KM12 cells assessed as growth inhibition at 10 uM incubated for 48 hrs by sulforhodamine B assay relative to control; format: functional; settings: for inhibition of growth at 10 µM: KM12, 48 h, read-out: GI
K562 = test: Cytostatic activity against human K562 cells assessed as growth inhibition at 10 uM incubated for 48 hrs by sulforhodamine B assay relative to control; format: functional; settings: K562, 48 h, read-out: GI
HCT-116 = test: Cytostatic activity against human HCT116 cells assessed as growth inhibition at 10 uM incubated for 48 hrs by sulforhodamine B assay relative to control; format: functional; settings: for inhibition of growth at 10 µM: HCT-116, 48 h, read-out: GI
SR = test: Cytostatic activity against human SR cells assessed as growth inhibition at 10 uM incubated for 48 hrs by sulforhodamine B assay relative to control; format: functional; settings: for inhibition of growth at 10 µM: read-out: GI
SW-620 [2] = test: Cytostatic activity against human SW620 cells assessed as growth inhibition at 10 uM incubated for 48 hrs by sulforhodamine B assay relative to control; format: functional; settings: for inhibition of growth at 10 µM: SW-620, 48 h, read-out: GI
MCF7 = test: Cytostatic activity against human MCF7 cells assessed as growth inhibition at 10 uM incubated for 48 hrs by sulforhodamine B assay relative to control; format: functional; settings: MCF7, 48 h, read-out: GI
NCI-H522 = test: Cytostatic activity against human NCI-H522 cells assessed as growth inhibition at 10 uM incubated for 48 hrs by sulforhodamine B assay relative to control; format: functional; settings: NCI-H522, 48 h, read-out: GI
OVCAR-3 = test: Cytostatic activity against human OVCAR3 cells assessed as growth inhibition at 10 uM incubated for 48 hrs by sulforhodamine B assay relative to control; format: functional; settings: for inhibition of growth at 10 µM: OVCAR-3, 48 h, read-out: GI
RPMI-8226 = test: Cytostatic activity against human RPMI8226 cells assessed as growth inhibition at 10 uM incubated for 48 hrs by sulforhodamine B assay relative to control; format: functional; settings: for inhibition of growth at 10 µM: RPMI-8226, 48 h, read-out: GI
CCRF-CEM = test: Cytostatic activity against human CCRF-CEM cells assessed as growth inhibition at 10 uM incubated for 48 hrs by sulforhodamine B assay relative to control; format: functional; settings: for inhibition of growth at 10 µM: read-out: GI
LOX IMVI = test: Cytostatic activity against human LOXIMVI cells assessed as growth inhibition at 10 uM incubated for 48 hrs by sulforhodamine B assay relative to control; format: functional; settings: for inhibition of growth at 10 µM: read-out: GI
SW-620 [3] = test: Cytotoxicity against human SW620 cells assessed as growth inhibition of preexisting tumor cells at 10 uM incubated for 48 hrs by sulforhodamine B assay relative to control; format: functional; settings: SW-620, 48 h, read-out: GI

IC50 [1] | Compound | inhibition (Homo sapiens) | inhibition of growth at 10 µM (K562) | inhibition of growth at 10 µM (HCT-116) | inhibition of growth at 10 µM (MCF7) | inhibition of growth at 10 µM (NCI-H522) | inhibition of growth at 10 µM (CCRF-CEM) | inhibition of growth at 10 µM (KM12) | inhibition of growth at 10 µM (SW-620 [2]) | inhibition of growth at 10 µM (LOX IMVI) | further results
– | O=C(CC(CC(=O)c1ccc(Cl)nc1)c1ccc(Cl)nc1)c1ccc(Cl)nc1 | 4% | – | – | – | – | – | – | – | – | –
24.9 µM | CCOc1ccc(C(=O)/C=C/c2cccs2)cn1 | 86% | – | – | – | – | – | – | – | – | –
– | O=C(CC(CC(=O)c1ccc(Cl)nc1)c1cccs1)c1ccc(Cl)nc1 | 19% | – | – | – | – | – | – | – | – | –
96.6 µM | O=C(/C=C/c1ccc(Cl)c(Cl)c1)c1ccc(Cl)c(Cl)c1 | 60% | 9.7% | 6.1% | 14.2% | 8.1% | 3.7% | – | – | – | growth inhibition (GI) (KM12): inactive; inhibition of growth at 10 µM (SR): 6.1%; growth inhibition (GI) (SW-620 [2]): inactive; growth inhibition (GI) (OVCAR-3): inactive; inhibition of growth at 10 µM (RPMI-8226): 7.2%; growth inhibition (GI) (LOX IMVI): inactive
0.6 µM | O=C(CC(O)c1cccs1)c1cccs1 (racemic) | 86% | – | – | – | – | – | – | – | – | –
– | O=C(/C=C/c1ccc(Cl)nc1)c1cccs1 | 28% | 65.8% | 35.5% | 84.3% | 37.2% | 38.6% | 57.8% | 47.6% | 85% | inhibition of growth at 10 µM (OVCAR-3): 45.8%
– | O=C(/C=C/c1ccc(Cl)c(Cl)c1)c1ccc(Cl)cc1Cl | 53% | – | – | – | – | – | – | – | – | –
– | O=C(/C=C/c1cccs1)c1ccc(Cl)nc1 | – | 2.9% | 8.9% | 32.3% | 18% | 8.6% | – | – | – | growth inhibition (GI) (KM12): inactive; inhibition of growth at 10 µM (SR): 17.5%; growth inhibition (GI) (SW-620 [2]): inactive; growth inhibition (GI) (OVCAR-3): inactive; inhibition of growth at 10 µM (RPMI-8226): 95.8%; growth inhibition (GI) (LOX IMVI): inactive
– | O=C(CC(CC(=O)c1cccs1)c1ccc(Cl)cc1Cl)c1cccs1 | 0% | 25% | 34.7% | 10.2% | 17.3% | 7.9% | 4.8% | 4.4% | 10.9% | inhibition of growth at 10 µM (SR): 9.7%; growth inhibition (GI) (OVCAR-3): inactive; inhibition of growth at 10 µM (RPMI-8226): 17.3%
7.4 µM | O=C(/C=C/c1cccs1)c1ccc(Cl)c(Cl)c1 | 98% | 1.7% | 2.2% | 72.5% | 8.6% | – | 2.8% | 5.5% | – | growth inhibition (GI) (SR): inactive; growth inhibition (GI) (OVCAR-3): inactive; growth inhibition (GI) (RPMI-8226): inactive; growth inhibition (GI) (CCRF-CEM): inactive; growth inhibition (GI) (LOX IMVI): inactive
– | O=C(/C=C/c1ccc(Cl)cc1Cl)c1ccc(Cl)nc1 | 39% | 18.9% | 56.6% | 63.4% | 24.2% | 6.5% | 3.6% | 7.9% | 65.1% | inhibition of growth at 10 µM (SR): 55.7%; growth inhibition (GI) (OVCAR-3): inactive; inhibition of growth at 10 µM (RPMI-8226): 8.9%
0.18 µM | CCCCCCCCCCCCCC/C(C(=O)O)=C(\C)C(=O)O [CHAETOMELLIC ACID A] | 100% | – | – | – | – | – | – | – | – | –
0.009 µM | CCOC(=O)c1cc(C(=O)/C=C/c2ccc3c(c2)Sc2ccccc2N3C)n2ccccc12 | – | – | – | – | – | – | – | – | – | –
38.7 µM | O=C(/C=C/c1ccc(Cl)cc1Cl)c1ccc(Cl)cc1Cl | 69% | – | – | – | – | – | – | – | – | –
– | O=C(c1cccs1)[C@H]1[C@H](c2ccc(Cl)cc2Cl)[C@@H](C(=O)c2cccs2)[C@](O)(c2cccs2)C[C@@H]1c1ccc(Cl)cc1Cl | 11% | 16.5% | 21.2% | 18.3% | 18.5% | 22.3% | 4.7% | 12.7% | 3.1% | inhibition of growth at 10 µM (SR): 10%; inhibition of growth at 10 µM (OVCAR-3): 11.5%; inhibition of growth at 10 µM (RPMI-8226): 26.8%
8.7 µM | O=C(/C=C/c1ccc(Cl)cc1Cl)c1ccc(Cl)c(Cl)c1 | 74% | 2.4% | 13.9% | 28.3% | 11.4% | – | 0.3% | – | – | inhibition of growth at 10 µM (SR): 2.8%; growth inhibition (GI) (SW-620 [2]): inactive; growth inhibition (GI) (OVCAR-3): inactive; inhibition of growth at 10 µM (RPMI-8226): 5.4%; growth inhibition (GI) (CCRF-CEM): inactive; growth inhibition (GI) (LOX IMVI): inactive
– | O=C(/C=C/c1ccc(Cl)nc1)c1ccc(Cl)nc1 | 26% | 6.1% | – | 8.8% | 5.3% | 3.1% | 1% | – | – | growth inhibition (GI) (HCT-116): inactive; growth inhibition (GI) (SW-620 [2]): inactive; growth inhibition (GI) (OVCAR-3): inactive; growth inhibition (GI) (LOX IMVI): inactive
– | O=C(c1cccs1)[C@H]1[C@H](c2cccs2)[C@@H](C(=O)c2cccs2)[C@](O)(c2cccs2)C[C@@H]1c1cccs1 | 2% | 14.5% | 6.1% | 12.2% | 15.3% | 5% | 3.4% | – | 7.8% | inhibition of growth at 10 µM (SR): 7.9%; growth inhibition (GI) (SW-620 [2]): inactive; growth inhibition (GI) (OVCAR-3): inactive; inhibition of growth at 10 µM (RPMI-8226): 17.7%
20.8 µM | O=C(/C=C/c1cccs1)c1ccc(Cl)cc1Cl | 70% | – | – | – | – | – | – | – | – | –
12 µM | O=C(/C=C/c1cccs1)c1cccs1 | 100% | – | – | – | – | – | – | – | – | –
– | O=C(/C=C/c1ccc(Cl)c(Cl)c1)c1cccs1 | 47% | 71.6% | 39.8% | 87.1% | 24.7% | 31.3% | 15.4% | 29.6% | 45.7% | inhibition of growth at 10 µM (SR): 78%; inhibition of growth at 10 µM (OVCAR-3): 6.8%; inhibition of growth at 10 µM (RPMI-8226): 66.9%
– | CCOc1ccc([C@]2(O)C[C@H](c3cccs3)[C@@H](C(=O)c3ccc(Cl)nc3)[C@H](c3cccs3)[C@H]2C(=O)c2ccc(Cl)nc2)cn1 | 24% | – | – | – | – | – | – | – | – | –
– | O=C(/C=C/c1ccc(Cl)c(Cl)c1)c1ccc(Cl)nc1 | 22% | 25.3% | 19.3% | 69.8% | 17% | 15.2% | 32.4% | 17.6% | 21.9% | inhibition of growth at 10 µM (OVCAR-3): 11.2%
25.8 µM | O=C(/C=C/c1ccc(Cl)cc1Cl)c1cccs1 | 84% | – | – | – | – | – | – | – | – | –
– | O=C(/C=C/c1ccc(Cl)nc1)c1ccc(Cl)c(Cl)c1 | 54% | 48.3% | 55.1% | 66.4% | 45.8% | 26.6% | 44.4% | 40.1% | 37.6% | inhibition of growth at 10 µM (OVCAR-3): 43.5%
– | O=C(/C=C/c1ccc(Cl)nc1)c1ccc(Cl)cc1Cl | 53% | 92.3% | 63.3% | 82.9% | 61.3% | 93% | 23.5% | 100% | 93.5% | inhibition of growth at 10 µM (SW-620 [3]): 33.2%; inhibition of growth at 10 µM (OVCAR-3): 21.5%

Compound | IC50 [1] | inhibition (Homo sapiens) | inhibition of growth at 10 µM (K562) | inhibition of growth at 10 µM (HCT-116) | inhibition of growth at 10 µM (MCF7) | inhibition of growth at 10 µM (NCI-H522) | inhibition of growth at 10 µM (CCRF-CEM) | inhibition of growth at 10 µM (KM12) | inhibition of growth at 10 µM (SW-620 [2]) | inhibition of growth at 10 µM (LOX IMVI) | further results
Cn1cncc1[C@@](N)(c1ccc(Cl)cc1)c1ccc2c(c1)c(-c1cccc(Cl)c1)cc(=O)n2C [TIPIFARNIB] | 0.0079 µM | – | – | – | – | – | – | – | – | – | –
